This assay concerns the target T1, Proto-oncogene tyrosine-protein kinase Src [84-145] (UniProt P12931).
T1 construct: 84-145
The assay can be described thus: Surface Plasmon Resonance Experiment. How it is done: Experimental method: Surface plasmon resonance test was carried out on BIACORE T200 instrument (GE Company). Fresh purified grade Src kinase SH3 domain protein (concentration 2 mg/ml) was diluted to 0.1 mg/ml with 10 mM CH3COONa (pH 4.2) and then SH3 protein was coupled to the CM5 chip by standard amino coupling methods. The compounds of the invention were diluted in a gradient using a buffer solution (20 mM Tris-HCl, PH 8.0, 100 mM NaCl) for 60 seconds and dissociated for 120 seconds at a flow rate of […], respectively. The changes in response values over time were recorded and analyzed by the BIA Evaluation Software (GE Healthcare) program to obtain the dissociation constants KD for the different compounds with SH3 protein.

Molecules are shown by their SMILES. A value given as a limit tells only on which side of the number the result lay.

A word on the Kd: it is the equilibrium constant for the complex coming apart. High values mean lower affinity, low ones higher affinity.

Consider `COc1cnc2c(c1)c(C(N)=O)c(CNC(=N)N)n2C` [US20250289812, Example SYY-C036], for which the equilibrium dissociation constant (Kd) is < 1000 nM.

Regarding `CCOC(=O)c1c(CNC(=N)N)n(C)c2cc(C3CC4CCC3C4)ccc12` (configuration not stated) [US20250289812, Example SYY-C069], the Kd was < 1000 nM.

Source of the values: BindingDB's records for patent US20250289812 (Shanghai Institute Of Materia Medica, 2025).
